Experimental data taken from patent USRE42376E1, “Substituted 3-cyanoquinolines” (Wyeth Holdings Corporation, priority 1998, dated 2011).
Values after ≈ are worked out from the molar mass of the structure shown. Counter-ions that a name gives are not always drawn.

What was measured:
[1] = molecular target: Epithelial Cell Kinase (ECK) (Homo sapiens, UniProt P29317); assay: Inhibition of Epithelial Cell Kinase (ECK); type: biochemical
Procedure: In this standard pharmacological test procedure, a biotinylated peptide substrate is first immobilized on neutravidin-coated microtiter plates. The test drug, the Epithelial Cell Kinase (ECK), Mg^++, sodium vanadate (a protein tyrosine phosphatase inhibitor), and an appropriate buffer to maintain pH (7.2) are then added to the immobilized substrate-containing microtiter wells. ATP is then added to initiate phosphorylation. After incubation, the assay plates are washed with a suitable buffer leaving behind phosphorylated peptide which is exposed to horse radish peroxidase (HRP)-conjugated anti-phosphotyrosine monoclonal antibody. The antibody-treated plates are washed again and the HRP activity in individual wells is quantified as a reflection of degree of substrate phosphorylation. […] Multiple entries for a given compound indication it was tested multiple times.

[2] = molecular target: T1, recombinant human MEK 1 (MAPKK) and human ERK2 (MAPK) (Homo sapiens, UniProt P28482+Q02750); assay: Mitogen Activated Protein Kinase (MAPK) coupled assay (Mek-Erk); type: biochemical; details: separate entries = repeat tests
T1 construct: The recombinant enzymes used were prepared as GST fusion proteins of human ERK 2 and human MEK 1
Procedure: To evaluate inhibitors of the MAP (mitogen activated protein) kinase a two component coupled standard pharmacological test procedure, which measures phosphorylation of a serine/threonine residue in an appropriate sequence in the substrate in the presence and absence of a putative inhibitor, was used. Recombinant human MEK 1 (MAPKK) was first used to activate recombinant human ERK2 (MAPK) and the activated MAPK (ERK) was incubated with substrate (MBP peptide or MYC peptide) in the presence of ATP, Mg^+2 and radiolabeled ^33P ATP. The phosphorylated peptide was captured on a P 81 phosphocellulose filter (paper filter or embedded in microtiter plate) washed and counted by scintillation methods. […]
The reaction was run as follows in 50 mM Tris kinase buffer, pH 7.4 in a reaction volume of 50 ul. […] The filters or MTP were briefly air dried before addition of scintillant and samples were counted in the appropriate scintillation counter set up for reading ^33P isotope. […]
The raw data was captured as cpm. […] Mean cpm data was tabulated by group and % inhibition by a test compound was calculated as (corrected cpm control-corrected. cpm sample/control) X 100=% inhibition. […] The results obtained for representative compounds of this invention are listed in TABLE 2 where there may be separate entries for the same compound; this is an indication that the compound was evaluated more than one time.

[3] = tested on: Human Epidermoid Tumors (A431); assay: In vivo inhibition of the growth of human epidermoid tumors (A431) in mice; design: species or system BALB/c nu/nu female mice; details: for S/T = # of Survivors/# of Treated: Day +28 post tumor staging
Procedure: Human epidernoid carcinoma cells A-431 (American Type Culture Collection, Rockville, Md. #CRL-155) were grown in vitro as described above. A unit of 5×10^6 cells were injected SC into mice. […] Control animals received no drug. […] The % T/C (Tumor/Control) is determined by dividing the relative tumor growth of the treated group by the relative tumor growth of the placebo group and multiplying by 100.

[4] = tested on: SW620; assay: Inhibition of cancer cell growth as measured by cell number, SW620; type: cell-based, Human; details: 48 hours exposure, Sulforhodamine B
Procedure: (§1) Human tumor cell lines were plated in 96-well plates (250 μl/well, 1-6×10^4 cells/ml) in RPMI 1640 medium, containing 5% FBS (Fetal Bovine Serum). […] After 48 hours exposure to test compounds, cells were fixed with trichloroacetic acid, and stained with Sulforhodamine B. After washing with trichloroacetic acid, bound dye was solubilized in 10 mM Tris base and optical density was determined using plate reader. Under conditions of the assay the optical density is proportional to the number of cells in the well. […] The test procedure is described in details by Philip Skehan et. al, J.Natl. Canc. Inst., 82, 1107-1112 (1990). […] Information about some of the cell lines used in these test procedures is available from the American Type Tissue Collection: Cell Lines and Hybridomas, 1994 Reference Guide, 8th Edition.

[5] = tested on: SKBR3; assay: Inhibition of cancer cell growth as measured by cell number, SKBR3; type: cell-based, Human; details: 48 hours exposure, Sulforhodamine B
Procedure: as §1

[6] = tested on: 3T3; assay: Inhibition of cell growth as measured by cell number, 3T3; type: cell-based; details: 48 hours exposure, Sulforhodamine B
Procedure: as §1

[7] = tested on: Her2/3T3; assay: Inhibition of cell growth as measured by cell number, Her2/3T3; type: cell-based; details: 48 hours exposure, Sulforhodamine B
Procedure: as §1

[8] = tested on: MDAMB435; assay: Inhibition of cancer cell growth as measured by cell number, MDAMB435; type: cell-based, Human; details: 48 hours exposure, Sulforhodamine B
Procedure: as §1

[9] = tested on: A431; assay: Inhibition of cancer cell growth as measured by cell number, A431; type: cell-based, Human; details: 48 hours exposure, Sulforhodamine B
Procedure: as §1

Epithelial Cell Kinase (ECK), sequence (P29317 24-976, species assumed): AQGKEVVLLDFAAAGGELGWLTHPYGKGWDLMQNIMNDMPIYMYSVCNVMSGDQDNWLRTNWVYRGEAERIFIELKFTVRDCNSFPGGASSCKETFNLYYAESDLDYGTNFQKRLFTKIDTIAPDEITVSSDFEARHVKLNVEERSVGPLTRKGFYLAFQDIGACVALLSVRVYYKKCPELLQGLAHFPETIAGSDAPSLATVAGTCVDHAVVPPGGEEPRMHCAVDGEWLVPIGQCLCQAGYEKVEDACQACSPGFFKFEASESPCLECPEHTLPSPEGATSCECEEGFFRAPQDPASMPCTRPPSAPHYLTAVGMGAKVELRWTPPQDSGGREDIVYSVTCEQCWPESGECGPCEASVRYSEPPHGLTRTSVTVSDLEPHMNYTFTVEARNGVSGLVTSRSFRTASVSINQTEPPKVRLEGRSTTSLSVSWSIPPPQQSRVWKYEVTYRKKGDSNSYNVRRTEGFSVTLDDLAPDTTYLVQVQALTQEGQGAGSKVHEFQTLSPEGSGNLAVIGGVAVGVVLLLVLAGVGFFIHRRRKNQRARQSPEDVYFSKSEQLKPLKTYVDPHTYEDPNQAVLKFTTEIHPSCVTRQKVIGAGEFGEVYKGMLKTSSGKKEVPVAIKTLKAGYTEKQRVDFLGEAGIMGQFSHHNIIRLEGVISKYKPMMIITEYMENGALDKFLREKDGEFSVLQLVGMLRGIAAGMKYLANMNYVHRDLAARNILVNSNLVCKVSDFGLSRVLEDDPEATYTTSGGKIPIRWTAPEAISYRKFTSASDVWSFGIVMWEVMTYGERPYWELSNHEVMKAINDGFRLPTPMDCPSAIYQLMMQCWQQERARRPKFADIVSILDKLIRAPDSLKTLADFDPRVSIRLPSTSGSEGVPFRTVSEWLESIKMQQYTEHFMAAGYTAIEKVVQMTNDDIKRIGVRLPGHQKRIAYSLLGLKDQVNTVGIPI
T1 sequence (Q02750 whole entry, the tested form may be a part): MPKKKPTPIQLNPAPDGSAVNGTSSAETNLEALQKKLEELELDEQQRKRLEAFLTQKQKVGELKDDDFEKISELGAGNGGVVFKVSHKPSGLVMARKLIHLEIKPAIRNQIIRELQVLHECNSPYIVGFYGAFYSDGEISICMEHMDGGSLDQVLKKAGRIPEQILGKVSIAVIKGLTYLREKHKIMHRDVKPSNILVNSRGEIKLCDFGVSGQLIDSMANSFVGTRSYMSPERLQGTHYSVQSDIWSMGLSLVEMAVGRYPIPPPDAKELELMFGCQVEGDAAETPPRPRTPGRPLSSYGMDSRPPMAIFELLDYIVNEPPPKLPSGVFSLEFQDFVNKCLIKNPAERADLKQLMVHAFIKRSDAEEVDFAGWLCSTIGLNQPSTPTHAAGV
T1 sequence (P28482 2-360): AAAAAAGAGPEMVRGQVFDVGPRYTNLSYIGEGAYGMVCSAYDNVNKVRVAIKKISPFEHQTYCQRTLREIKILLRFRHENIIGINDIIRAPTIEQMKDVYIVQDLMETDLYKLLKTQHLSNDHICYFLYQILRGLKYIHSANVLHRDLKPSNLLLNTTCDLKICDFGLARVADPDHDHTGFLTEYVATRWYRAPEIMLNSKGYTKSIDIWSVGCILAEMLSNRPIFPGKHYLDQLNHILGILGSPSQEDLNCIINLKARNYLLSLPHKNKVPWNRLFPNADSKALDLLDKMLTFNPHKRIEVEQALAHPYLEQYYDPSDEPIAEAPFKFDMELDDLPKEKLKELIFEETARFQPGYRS

C=CCN(C)CC#CC(=O)Nc1ccc2ncc(C#N)c(Nc3cccc(Br)c3)c2c1 [Example 77, N-[4-[(3-Bromophenyl)amino]-3-cyano-6-quinolinyl]-4-(N-allyl-N-methylamino)-2-butynamide]
melting point: 133 to 135 °C

COCCN(CC#CC(=O)Nc1ccc2ncc(C#N)c(Nc3cccc(Br)c3)c2c1)CCOC [Example 75, N-[4-[(3-Bromophenyl)amino]-3-cyano-6-quinolinyl]-4-(bis-(2-methoxyethyl)amino)-2-butynamide]
IC50 [1]: > 37.3 µM
melting point: 98 to 101 °C

COc1cc2ncc(C#N)c(Nc3ccc(F)c(Cl)c3)c2cc1N1CC1
melting point: 197 to 199 °C

COC[C@@H]1CCCN1CC#CC(=O)Nc1ccc2ncc(C#N)c(Nc3cccc(Br)c3)c2c1 [Example 79, 4-((2S)-2-Methoxymethylpyrrolidin-1-yl)but-2-ynoic Acid[4-(3-bromophenylamino)-3-cyanoquinolin-6-yl]amide]
IC50 [1]: > 38.6 µM
IC50 [2]: 80 µM

COCCN(C)CC=CC(=O)Nc1cc2c(Nc3ccc(F)c(Cl)c3)c(C#N)cnc2cc1OC [Example 89, 4-[(2-Methoxy-ethyl)-methyl-amino]-but-2-enoic Acid[4-(3-chloro-4-fluoro-phenylamino)-3-cyano-7-methoxy-quinolin-6-yl]-amide Dihydrochloride]
S/T = # of Survivors/# of Treated ([3]; Table 5, 10 mg/kg/dose PO days 1 through 10): 4/5
S/T = # of Survivors/# of Treated ([3]; Table 5, 40 mg/kg/dose PO days 1 through 10): 5/5
inhibition of tumor growth in vivo (in words) ([3]; given orally at 40 mg/Kg and 10 mg/Kg): effective inhibitor of tumor growth in vivo

COCCN(C)CC#CC(=O)Nc1ccc2ncc(C#N)c(Nc3cccc(Br)c3)c2c1 [Example 76, N-[4-[(3-Bromophenyl)amino]-3-cyano-6-quinolinyl]-4-(N-methoxyethyl-N-methylamino)-2-butynamide]
IC50 [1]: > 40.6 µM
melting point: 95 °C (dec.)

COC[C@@H]1CCCN1CC=CC(=O)Nc1cc2c(Nc3ccc(F)c(Cl)c3)c(C#N)cnc2cc1OC.Cl.Cl [Example 90, (S)-4-(2-Methoxymethyl-pyrrolidin-1-yl)-but-2-enoic Acid[4-(3-chloro-4-fluoro-phenylamino)-3-cyano-7-methoxy-quinolin-6-yl]-amide dihydrochloride]
IC50 cell growth SW620 [4]: 1.24 µg/mL
IC50 cell growth SKBR3 [5]: 0.148 µg/mL
IC50 cell growth 3T3 [6]: 2.1 µg/mL
IC50 cell growth Her2/3T3 [7]: 0.329 µg/mL
IC50 cell growth MDAMB435 [8]: 1.74 µg/mL
IC50 cell growth A431 [9]: 0.234 µg/mL

COc1cc2ncc(C#N)c(Nc3ccc(F)c(Cl)c3)c2cc1NC(=O)C=CCN1CCC2(CC1)OCCO2 [Example 92, 4-(1,4-Dioxa-8-aza-spiro[4.5]dec-8-yl)-but-2-enoic Acid[4-(3-chloro-4-fluoro-phenylamino)-3-cyano-7-methoxy-quinolin-6-yl]-amide]
IC50 cell growth SW620 [4]: 2.51 µg/mL (≈ 4.55 µM)
IC50 cell growth SKBR3 [5]: 0.188 µg/mL (≈ 0.341 µM)
S/T = # of Survivors/# of Treated ([3]; Table 4, 10 mg/kg/dose PO days 1 through 10): 5/5
S/T = # of Survivors/# of Treated ([3]; Table 4, 40 mg/kg/dose PO days 1 through 10): 5/5
inhibition of tumor growth in vivo (in words) ([3]; given orally at 40 mg/Kg): effective inhibitor of tumor growth in vivo
IC50 cell growth 3T3 [6]: 2.79 µg/mL (≈ 5.05 µM)
IC50 cell growth Her2/3T3 [7]: 0.35 µg/mL (≈ 0.634 µM)
IC50 cell growth MDAMB435 [8]: 3.32 µg/mL (≈ 6.01 µM)
IC50 cell growth A431 [9]: 0.283 µg/mL (≈ 0.513 µM)

CCOc1c(Nc2ccc3ncc(C#N)c(Nc4cccc(Br)c4)c3c2)c(=O)c1=O [Example 85, 4-(3-Bromo-phenylamino)-6-(2-ethoxy-3,4-dioxo-cyclobut-1-enylamino)-quinoline-3-carbonitrile]
IC50 [1]: > 21.6 µM
